Source: patent US6271238A, “Acetamide derivatives and protease inhibitors” (Nippon Kayaku Kabushiki Kaisha, priority 1996, dated 2001)

Tests used:
Format in all cases: biochemical
dog chymase = target: T1, dog chymase (Canis lupus familiaris, UniProt P21842); experiment: Inhibitory activity on dog chymase (angiotensin I as substrate); conditions: pH 8.0, 37° C., 60 min, read-out: Dog Chymase (IC50: nM), 50% inhibitory concentration
T1 construct: 60 g dog heart was finely divided by scissors and a scalpel; from tissue; host or cells: dog heart
T1 sequence (P21842 22-249): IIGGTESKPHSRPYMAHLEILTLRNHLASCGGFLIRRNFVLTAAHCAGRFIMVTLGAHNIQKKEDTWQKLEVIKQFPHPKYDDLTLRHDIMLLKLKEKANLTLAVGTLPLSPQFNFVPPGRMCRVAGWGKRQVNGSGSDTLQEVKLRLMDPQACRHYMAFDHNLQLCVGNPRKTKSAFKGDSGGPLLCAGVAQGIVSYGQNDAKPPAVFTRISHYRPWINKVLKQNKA
Text: It is known that chymase is present in tissues of various animals, and its isolation and purification methods are described in Anal. Biochem., 137, 449 (1984) and FEBS Letters, 323, 119 (1993). In the present invention, chymase was purified by the methods described in these literatures, and the present compounds were examined for inhibitory activity on chymase, inhibitory action on activation of mast cells and eosinophils, and pharmacological action in animals. Hereinafter, specific methods are described. (c) Preparation of dog chymase 60 g dog heart was finely divided by scissors and a scalpel, suspended in 0.1 M phosphate buffer (pH 8.0), and disrupted by a Polytron homogenizer for 5 minutes to prepare a crude chymase enzyme solution. It was centrifuged at 22000×g for 15 minutes, and the precipitates were used as a chymase enzyme fraction. […] An active fraction decomposing the synthetic chymase substrate was recovered and concentrated and this product was used as a purified dog chymase in the following activity measurement. (D) Measurement of inhibitory activity on chymase (b) Measurement using angiotensin I as substrate The inhibitory activity on the human chymase and dog chymase was measured using angiotensin I (Peptide Kenkyusho) as substrate besides the above synthetic substrate. […] After the end of the reaction, produced angiotensin II was immediately measured by high performance liquid chromatography to determine the activity of the chymase to calculate 50% inhibitory concentration (IC50: nM). The test was conducted several times. Chymase was prepared for each test in the manner described above. The compounds examined were compounds prepared in the above-described examples. […] 50% Inhibitory concentration (IC50: nM) of each compound toward rat chymase, dog […] human […] Substrate: Succinyl leucyl leucyl valyl tyrosyl methylcoumarylamide (for rat […] angiotensin I (for human and dog chymase)

rat chymase = target: T2, rat chymase (Rattus norvegicus, UniProt P09650); experiment: Inhibitory activity on rat chymase (synthetic substrate); conditions: substrate succinyl leucyl leucyl valyl tyrosyl methylcoumarylamide; pH 8.0, 37° C., 15 min; read-out: Rat Chymase (IC50: nM), 50% inhibitory concentration
T2 construct: 50 g rat tongue was finely divided by scissors and a scalpel; from tissue; host or cells: rat tongue
T2 sequence (P09650 21-260): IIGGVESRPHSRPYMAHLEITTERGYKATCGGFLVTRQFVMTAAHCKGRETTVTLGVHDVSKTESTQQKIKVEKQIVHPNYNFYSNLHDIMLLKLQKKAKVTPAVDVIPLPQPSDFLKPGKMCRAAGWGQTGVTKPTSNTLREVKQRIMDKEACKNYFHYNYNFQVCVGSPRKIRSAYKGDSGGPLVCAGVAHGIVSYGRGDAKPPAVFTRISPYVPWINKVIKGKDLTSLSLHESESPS
Method: In the present invention, chymase was purified by the methods described in these literatures, and the present compounds were examined for inhibitory activity on chymase, inhibitory action on activation of mast cells and eosinophils, and pharmacological action in animals. Hereinafter, specific methods are described. […] 50 g rat tongue was finely divided by scissors and a scalpel, suspended in 0.1 M phosphate buffer (pH 8.0), and disrupted by a Polytron homogenizer for 5 minutes to prepare a crude chymase enzyme solution. […] The supernatant was applied to an octyl Sepharose 4B column (40×100 mm) previously equilibrated with 0.1 M phosphate buffer (pH 8.0) containing 2 M sodium chloride and 5% ammonium sulfate, and the protein was eluted with a linear concentration gradient of from 2 M to 0 M sodium chloride. […] (D) Measurement of inhibitory activity on chymase (a) Measurement using the synthetic substrate The synthetic chymase substrate was used for measurement of the inhibitory activity on the rat chymase as a subtrate, and the fluorescence of formed aminomethylcoumarin after reaction was measured by a spectrophotometer. […] The test was conducted several times. Chymase was prepared for each test in the manner described above. The compounds examined were compounds prepared in the above-described examples. […] Succinyl leucyl leucyl valyl tyrosyl methylcoumarylamide (for rat […] angiotensin I (for human and dog chymase)

human chymase = target: T3, human chymase (Homo sapiens, UniProt P23946); experiment: Inhibitory activity on human chymase (angiotensin I as substrate); conditions: for IC50: substrate angiotensin I, pH 8.0, 37° C., 60 min, read-out: Human Chymase (IC50: nM), 50% inhibitory concentration
T3 construct: 60 g human tonsils were finely divided by scissors and a scalpel; from tissue; host or cells: human tonsils
T3 sequence (P23946 22-247): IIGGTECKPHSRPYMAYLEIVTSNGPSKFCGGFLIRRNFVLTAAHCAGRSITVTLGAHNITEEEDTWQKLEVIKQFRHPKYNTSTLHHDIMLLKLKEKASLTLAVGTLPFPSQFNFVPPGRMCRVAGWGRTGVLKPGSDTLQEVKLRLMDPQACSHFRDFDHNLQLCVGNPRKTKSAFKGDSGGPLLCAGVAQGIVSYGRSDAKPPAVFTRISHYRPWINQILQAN
Text: It is known that chymase is present in tissues of various animals, and its isolation and purification methods are described in Anal. Biochem., 137, 449 (1984) and FEBS Letters, 323, 119 (1993). In the present invention, chymase was purified by the methods described in these literatures, and the present compounds were examined for inhibitory activity on chymase, inhibitory action on activation of mast cells and eosinophils, and pharmacological action in animals. Hereinafter, specific methods are described. 50 g rat tongue was finely divided by scissors and a scalpel, suspended in 0.1 M phosphate buffer (pH 8.0), and disrupted by a Polytron homogenizer for 5 minutes to prepare a crude chymase enzyme solution. […] The supernatant was applied to an octyl Sepharose 4B column (40×100 mm) previously equilibrated with 0.1 M phosphate buffer (pH 8.0) containing 2 M sodium chloride and 5% ammonium sulfate, and the protein was eluted with a linear concentration gradient of from 2 M to 0 M sodium chloride. An active fraction decomposing succinyl leucyl leucyl valyl tyrosyl methylcumarylamide (hereinafter referred to as the synthetic chymase substrate, a product of Peptide Kenkyusho) was recovered and concentrated and this product was used as a purified rat chymase in the following activity measurement. (B) Preparation of human chymase 60 g human tonsils were finely divided by scissors and a scalpel, suspended in 0.1 M phosphate buffer (pH 8.0), and A-disrupted by a Polytron homogenizer for 5 minutes to prepare a crude chymase enzyme solution. It was centrifuged at 22000×g for 30 minutes, and the precipitates were used as a chymase enzyme fraction. […] The supernatant was concentrated by an ultrafiltration membrane, then applied to […] column (6.0×300 mm), and eluted with 0.1 M phosphate buffer (pH 8.0). An active fraction decomposing the synthetic chymase substrate was recovered and concentrated and this product was used as a purified human chymase in the following activity measurement. (D) Measurement of inhibitory activity on chymase (b) Measurement using angiotensin I as substrate The inhibitory activity on the human chymase and dog chymase was measured using angiotensin I (Peptide Kenkyusho) as substrate besides the above synthetic substrate. […] After the end of the reaction, produced angiotensin II was immediately measured by high performance liquid chromatography to determine the activity of the chymase to calculate 50% inhibitory concentration (IC50: nM). The test was conducted several times. Chymase was prepared for each test in the manner described above. The compounds examined were compounds prepared in the above-described examples. […] 50% Inhibitory concentration (IC50: nM) of each compound toward rat chymase, dog […] human […] Substrate: Succinyl leucyl leucyl valyl tyrosyl methylcoumarylamide (for rat […] angiotensin I (for human and dog chymase)

other human proteases = experiment: Inhibitory activity on other human proteases (summary)
Method: (E) Measurement of inhibitory activity on proteases other than chymase
The inhibitory activity of the present compounds on human elastase, human cathepsin G, human urokinase, human thrombin, human plasmin, and human factor Xa was determined using their corresponding synthetic substrates in the same manner as for chymase. All the above proteases were those commercially available from Boehringer Mannheim or purified by a combination of known methods. The synthetic substrates were those produced by Peptide Renkyusho. The synthetic substrates for the respective proteases are as follows.
The test was conducted several times. Chymase was prepared for each test in the manner described above. The compounds examined were compounds prepared in the above-described examples.

Row | Structure (SMILES) | IC50 (dog chymase) | IC50 (rat chymase) | IC50 (human chymase) | inhibitory activity on other human proteases, in words (other human proteases) | inhibitory activity on human chymase, in words (human chymase)
1 | CC(=O)C(=O)C(Cc1ccccc1)NC(=O)Cn1c(-c2ccccc2)ncc(NC(=O)OC(C)(C)C)c1=O (centres unmarked) [Compound 37, 2-(5-t-Butyloxycarbonylamino-6-oxo-1,6-dihydro-2-phenyl-1-pyrimidinyl)-N-(2,3-dioxo-1-phenylmethyl) butylacetamide] | 22 nM | 2900 nM | 673 nM | – | –
2 | CC(C)(C)OC(=O)Nc1cnc(-c2ccccc2)n(CC(=O)NC(Cc2ccccc2)C(=O)C(=O)CCc2ccccc2)c1=O (centres unmarked) [Compound 41] | 13 nM | 740 nM | 148 nM | – | –
3 | Nc1cnc(-c2ccccc2)n(CC(=O)NC(Cc2ccccc2)C(=O)C(=O)c2ccccc2)c1=O (centres unmarked) [Compound 46] | 494 nM | 2800 nM | 1590 nM | – | –
4 | Nc1cnc(-c2ccccc2)n(CC(=O)NC(Cc2ccccc2)C(=O)C(=O)CCCC(=O)O)c1=O (centres unmarked) [Compound 48] | 33 nM | > 10000 nM | 314 nM | – | –
5 | CC(=O)C(=O)C(Cc1ccc(O)c(F)c1)NC(=O)Cn1c(-c2ccccc2)ncc(N)c1=O (centres unmarked) [Compound 50] | 19 nM | 690 nM | 73 nM | no inhibitory activity on other human proteases | strong inhibitory activity on human chymase
6 | CC(=O)C(=O)C(Cc1ccc(F)cc1)NC(=O)Cn1c(-c2ccccc2)ncc(NC(=O)OC(C)(C)C)c1=O (centres unmarked) [Compound 55] | 98 nM | 920 nM | > 10000 nM | – | –
7 | CC(=O)C(=O)C(Cc1ccc(Cl)cc1)NC(=O)Cn1c(-c2ccccc2)ncc(N)c1=O (centres unmarked) [Compound 58] | 71 nM | 340 nM | 2850 nM | – | –

Second part, led by results:

Row | IC50 (dog chymase) | IC50 (rat chymase) | IC50 (human chymase) | Structure (SMILES) | inhibitory activity on other human proteases, in words (other human proteases) | inhibitory activity on human chymase, in words (human chymase)
8 | 9.1 nM | 450 nM | 101 nM | CC(=O)C(=O)C(Cc1cccc(C)c1)NC(=O)Cn1c(-c2ccccc2)ncc(N)c1=O (centres unmarked) [Compound 60] | – | –
9 | 5 nM | 200 nM | 131 nM | CC(=O)C(=O)C(Cc1cccc(Cl)c1)NC(=O)Cn1c(-c2ccccc2)ncc(N)c1=O (centres unmarked) [Compound 62] | – | –
10 | 1 nM | 220 nM | 2.6 nM | Nc1cnc(-c2ccccc2)n(CC(=O)NC(Cc2ccccc2)C(=O)C(=O)CCCOc2ccccn2)c1=O (centres unmarked) [Compound 75] | no inhibitory activity on other human proteases | strong inhibitory activity on human chymase
11 | 0.19 nM | 190 nM | 122 nM | CC(=O)Nc1cnc(-c2ccccc2)n(CC(=O)NC(Cc2ccccc2)C(=O)C(=O)CCCn2ccccc2=O)c1=O (centres unmarked) [Compound 76] | – | –
12 | 1.4 nM | 48 nM | 7 nM | O=C(Cn1c(-c2ccccc2)ncc(NS(=O)(=O)Cc2ccccc2)c1=O)NC(Cc1ccccc1)C(=O)C(=O)CCCOc1ccccn1 (centres unmarked) [Compound 77, 2-(5-Benzylsulfonylamino-6-oxo-2-phenyl-1,6-dihydropyrimidine-1-yl)-N-{2,3-dioxo-1-phenylmethyl-6-(2-pyridyloxy)}hexylacetamide] | no inhibitory activity on other human proteases | strong inhibitory activity on human chymase
13 | 0.32 nM | 42 nM | 1.6 nM | O=C(Cn1c(-c2ccccc2)ncc(NC(=O)OCc2ccncc2)c1=O)NC(Cc1ccccc1)C(=O)C(=O)CCCOc1ccccn1 (centres unmarked) [Compound 78, 2-{6-oxo-2-phenyl-5-(4-pyridylmethyloxycarbonylamino)-1,6-dihydropyrimidine-1-yl}-N-{2,3-dioxo-1-phenylmethyl-6-(2-pyridyloxy)}hexylacetamide] | no inhibitory activity on other human proteases | strong inhibitory activity on human chymase
14 | 0.29 nM | 150 nM | 114 nM | O=C(Cn1c(-c2ccccc2)ncc(NC(=O)C2CCOC2)c1=O)NC(Cc1ccccc1)C(=O)C(=O)CCCc1ccccc1 (centres unmarked) [Compound 81] | – | –
